Patent US9888679B2, “Protection of progenitor cells and regulation of their differentiation” (Proteobioactives Pty Ltd, priority 2007, dated 2018)

Columns and labels:
[1] = tested on: Smad 4; assay: RT-PCR gene expression, 2 day monolayer ATDC5 cultures; assay type: cell-based, murine; settings: ATDC5 cells; concentrations shown to stimulate PG synthesis; FIG. 26
Excerpt: (§1) FIG. 26. RT-PCR detection of gene expression of Runx2 and the transduction proteins, Smad 2 and Smad 4 and the housekeeping gene NADPH expressed by Murine ATDC5 progenitor cells cultured in the presence and absence of rhNC4 (Batch PBA-1209P) and PPS for 2 days in monolayer cultures.
(§2) Total RNA was isolated from Progenitor cells according to the manufacturer's instructions for the Aurum total RNA mini kit (Bio-Rad, USA). The RNA was reverse transcribed with RevertAid™ H Minus First Stand cDNA Synthesis Kit (Fermentas, USA). PCR products were transferred to an agarose gel, and visualized by ethidium bromide staining, and integrated densities calculated using Scion image analysis software, normalized to the house-keeping gene Glyceraldehydes-3-phosphate dehydrogenase (GAPDH) to permit semi-quantitative comparisons in mRNA levels. (L. Marchuk, P. Sciore, C. Reno, C. B. Frank, D. A. Hart. Postmortem stability of total RNA isolated from rabbit ligament, tendon and cartilage, Biochim Biophys Acta. 1379 (1998) 171-177. R. Boykiw, P. Sciore, C. Reno, L. Marchuk, C. B. Frank, D. A. Hart. Altered levels of extracellular matrix molecule mRNA in healing rabbit ligaments, Matrix Biol. 17 (1998) 371-378.)

[2] = tested on: Smad 2; assay: as above; assay type: cell-based, murine; settings: ATDC5 cells; concentrations shown to stimulate PG synthesis; FIG. 26
Excerpt: as §1, §2

[3] = tested on: Primary human progenitor cells; assay: Differentiation in osteogenic media: mineralisation assay; assay type: cell-based; settings: for differentiation into osteoblasts/osteocytes: osteogenic media, particularly at 1 and 10 micrograms PPS/mL, FIG. 7
Protocol: FIG. 7. The Effects of Pentosan Polysulfate (PPS) on Human progenitor cell Differentiation: Mineralisation Assay. Primary human progenitor cells were cultured in 96 wells plates in non-osteoinductive growth media (media control) or in osteoinductive conditions (alphaMEM supplemented with 10% FCS, 100 microM L-ascorbate-2-phosphate, dexamethasone 10^−7 M and 3 mM inorganic phosphate) in the presence of PPS at the indicated concentrations. On day 28, the concentration of acid solubilisd calcium per well was determined using the Cresolphthalein Complexone method. (A) The concentration of acid solubilised calcium per microg of DNA/well was determined following the assessment of the total amount of DNA per well using a fluorogenic DNA stain (Hoeshst 33258). […] (B) Phase-contrast photomicrographs of mineralised cultures at ×20 magnification.
The conditions necessary for the induction of human progenitor cells to develop mineralised bone matrix in vitro have been previously described (Gronthos S, A C Zannettino, S J Hay, S Shi, S E Graves, A Kortesidis and P J Simmons. (2003). Molecular and cellular characterisation of highly purified stromal stem cells derived from human bone marrow. J Cell Sci 116:1827-1835). The osteoinductive media consists of alpha-MEM media supplemented with 2% (v/v) FCS, 1.8 mM KH2PO4, 10-7 dexamethasone sodium phosphate, 50 IU/ml penicillin, 50 μg/mL streptomycin, 1 mM Sodium Pyruvate, 100 μM L-Ascorbic acid 2-phosphate, 2 mM L-glutamine and 10 mM HEPES buffer. […]
Total mineral content per well in the above cultures was assessed by measuring the calcium levels per total DNA in each well. […] The acid-solubilzed mineral 23 was transferred to a new 96-well plate and reacted with o-cresol-phthalein-complexone (Thermal Electron Corporation, USA) to form a purple dye that was measured at 570 nm using an EL 808 Ultra Microplate Reader. […] Absolute absorbance was determined by measuring against a series of DNA standards at 350 nm by LS55 Luminescence Spectrometer (Perkin Elmer).

[4] = tested on: human progenitor cell; assay: Viability after cryopreservation and thawing, MTT assay; assay type: cell-based; settings: FIG. 3
Protocol: FIG. 3. Effects of different concentrations of Pentosan Polysulfate (PPS) on progenitor cell viability following cryopreservation in liquid nitrogen and rapidly thawing as described in FIG. 1. Cell viability was determined using the mitochondrial dehydrogenase MTT assay. Data shown=Means±SD *=p<0.05 relative to control values
Murine Progenitor cells (cell lines C3H10T1/2 or ATDC5) purchased from RIKEN Cell Bank (Tsukuba, Japan) or human immunoselected Stro-1+ progenitor cells (Mesoblast Ltd, Melbourne, Australia) were seeded at a various cell densities over the range of 1.68×10^5-1.0×10^6 cells into 2 mL screw-capped centrifuge tubes containing in DMEM+10% FBS. In separate tubes a stock solution containing 2× the required concentrations of PPS dissolved in DMEM+20% FBS and 15% DMSO were prepared. These stock solutions were added to the cell cultures such that the final concentration of PPS was half that of the stock concentration and of FBS was 10% and DMSO was […]. Over several independent experiments the final concentrations of PPS in the final solutions ranged from 0.0-100 ug/ml (see figures for details). All concentrations of PPS used were examined in triplicated. Cells and the cryopreservation solutions containing the PPS were mixed gently for 5 mins and stored in liquid nitrogen. […] 90 ul×3 from each tube were transferred to a 96-well plate and the absorbance at 540 nm determined. […]

Substance: pentosan polysulfate [PPS]
- expression of Smad 4 [1]: up regulation
- expression of Smad 2 [2]: up regulation
- differentiation into osteoblasts/osteocytes [3]: suppressed differentiation into osteocytes
- differentiation into osteoblasts/osteocytes ([3]; listed as polysulfated polysaccharides): suppress differentiation of progenitor cells to this cell phenotype
- calcified deposits in cultures (photomicrographs) ([3]; osteoinductive conditions, FIG. 7B): no calcified deposits are present
- cell viability after cryopreservation and thawing (MTT) ([4]; 168,000 cells, particularly at 1 and 2.5 μg/ml PPS): improved the viability of the cells
- cell viability after cryopreservation and thawing (MTT) ([4]; 350,000 cells): not adversely affected
